This note sets out measurements from ChEMBL document CHEMBL6178002, “Identification of a RANKL/TNF-α Dual-Inhibitor as a Potential Disease-Modifying Agent for the Treatment of Knee Osteoarthritis” (J Med Chem, 2025).

The inhibition is the share of the control response that was lost under treatment. Low readings indicate a response near the control, high ones a response far below the control. The IC50 is the midpoint of a concentration-inhibition curve.

A short description of data set [1]: Cytotoxicity against bone marrow macrophage cells (unknown origin) assessed as cell viability at 10 uM incubated for 24 hrs by CCK8 assay relative to control. Type of data set: toxicity, cell-based. The conditions noted are these: read-out: Activity. (In general: Tetrazolium assays rely on reduction of a dye to a coloured formazan, in cell work by metabolically active cells.)

Data set [2] in a line: Inhibition of RANKL/M-CSF-induced osteoclastogenesis in male C57/BL6 mouse bone marrow cells at 1 uM incubated for 5 to 7 days by TRAP staining based analysis relative to control. The conditions noted are these: C57/BL6, Bone marrow cell, time 5-7 day. The data set is classed as functional.
The nature of data set [3]: Inhibition of RANKL/M-CSF-induced osteoclastogenesis in male C57/BL6 mouse bone marrow cells at 0.1 uM incubated for 5 to 7 days by TRAP staining based analysis relative to control. Type of data set: functional. The conditions noted are these: C57/BL6, Bone marrow cell, time 5-7 day.
Data set [4] is described as follows: Anti-osteoclastogenic activity in bone marrow cells (unknown origin) assessed as inhibition of RANKL/M-CSF-induced osteoclast differentiation measured after 5 days by TRAP staining based analysis. Type of data set: functional. Conditions: Bone marrow cell, 120 h.

On to `Cc1cccc(C)c1NC(=O)[C@@H]1Cc2c([nH]c3ccccc23)[C@](C)(CCc2ccccc2)N1`, for which, in data set [1], the viability at 24 h, 10 µM came out at 117%. Moreover, in data set [2], the inhibition at 1 µM is 48.3%. For the same molecule, in data set [3], the inhibition at 0.1 µM was determined as 37.3%.

For the molecule `O=C(Nc1ccccc1F)[C@@H]1Cc2c3ccccc3[nH]c2[C@]2(C[C@@H](c3ccccc3)C2)N1`, the viability at 24 h, 10 µM in data set [1] worked out at 101%. This molecule also showed an inhibition at 1 µM in data set [2] of 70.1%. The molecule also returned an inhibition at 0.1 µM in data set [3] of 34.4%.

Take `CN(C)c1ccccc1NC(=O)[C@@H]1Cc2c3ccccc3[nH]c2[C@]2(C[C@H](c3ccccc3)C2)N1`: the viability at 24 h, 10 µM in data set [1] came out at 66.3%. Moreover, the inhibition at 1 µM in data set [2] was 58.4%. Besides, the inhibition at 0.1 µM in data set [3] was 10.2%.

Take `COc1cccc(OC)c1NC(=O)[C@@H]1Cc2c3ccccc3[nH]c2[C@]2(C[C@@H](c3ccccc3)C2)N1`: the viability at 24 h, 10 µM in data set [1] amounted to 70.2%. The molecule further yielded an inhibition at 1 µM in data set [2] of 32.3%. Further, the inhibition at 0.1 µM in data set [3] was 16.5%.

On to `CC(C)c1cccc(C(C)C)c1NC(=O)[C@@H]1Cc2c3ccccc3[nH]c2[C@]2(C[C@H](c3ccccc3)C2)N1`, for which the viability at 24 h, 10 µM in data set [1] amounted to 141%. The inhibition at 1 µM in data set [2] amounted to 62%. In addition, in data set [3], the inhibition at 0.1 µM was 20.7%.

Turning to `Cc1cccc(C)c1NC(=O)[C@H]1Cc2c3ccccc3[nH]c2[C@]2(C[C@H](c3ccccc3)C2)N1`, the viability at 24 h, 10 µM in data set [1] turned out to be 105%. Moreover, the inhibition at 1 µM in data set [2] stood at 45.7%. In addition, in data set [3], the inhibition at 0.1 µM is 12.3%.

Regarding `COc1cccc(OC)c1NC(=O)[C@@H]1Cc2c3ccccc3[nH]c2[C@]2(C[C@H](c3ccccc3)C2)N1`, the viability at 24 h, 10 µM in data set [1] worked out at 95.7%. Moreover, the inhibition at 1 µM in data set [2] was found to be 35.9%. This molecule also returned an inhibition at 0.1 µM in data set [3] of 11.5%.

In the case of `Cc1cccc(C)c1NC(=O)[C@@H]1Cc2c3ccccc3[nH]c2[C@]2(C[C@@H](c3ccccc3)C2)N1`, the viability at 24 h, 10 µM in data set [1] worked out at 105%. Testing at 1 µM in data set [2] gave an inhibition of 55.1%. The inhibition at 0.1 µM in data set [3] worked out at 36.2%.

As to `CCc1ccc(N2CC3(C2)N[C@H](C(=O)Nc2c(C)cccc2C)Cc2c3[nH]c3ccccc23)cc1`, the viability at 24 h, 10 µM in data set [1] is 101%. This molecule had an inhibition at 1 µM in data set [2] of 35.9%. The same molecule gave an inhibition at 0.1 µM in data set [3] of 25.1%.

For the molecule `Cc1cccnc1NC(=O)[C@@H]1Cc2c3ccccc3[nH]c2[C@]2(C[C@H](c3ccccc3)C2)N1`, the viability at 24 h, 10 µM in data set [1] came out at 159%. In addition, in data set [2], the inhibition at 1 µM was 49.8%. The molecule also registered an inhibition at 0.1 µM in data set [3] of 16.7%.

In the case of `Cc1cc2occ(CN(C)CCN(C)Cc3cn(-c4cccc(C(F)(F)F)c4)c4ccccc34)c(=O)c2cc1C`, the viability at 24 h, 10 µM in data set [1] turned out to be 3.8%. The IC50 in data set [4] came out at 1000 nM. Moreover, the inhibition at 1 µM in data set [2] is 56.1%. For the same molecule, the inhibition at 0.1 µM in data set [3] is 18.4%.

For the molecule `Cc1cccc(C)c1NC(=O)[C@@H]1Cc2c([nH]c3ccccc23)C2(CN(c3cccnc3)C2)N1`, in data set [1], the viability at 24 h, 10 µM is 107%. In data set [2], this molecule showed an inhibition at 1 µM of 52.5%. The same molecule gave an inhibition at 0.1 µM in data set [3] of 11.5%.

`COc1ccc(N2CC3(C2)N[C@H](C(=O)Nc2c(C)cccc2C)Cc2c3[nH]c3ccccc23)cc1`: the viability at 24 h, 10 µM in data set [1] is 102%. Moreover, at 1 µM the inhibition in data set [2] was 48.6%. Moreover, the inhibition at 0.1 µM in data set [3] is 34.6%.

Consider `Cc1cccc(C)c1NC(=O)[C@@H]1Cc2c([nH]c3ccccc23)C2(CN(c3ccc(S(C)(=O)=O)cc3)C2)N1`, for which the viability at 24 h, 10 µM in data set [1] is 106%. Further, in data set [2], the inhibition at 1 µM is 52.1%. 0.1 µM produced 23.4% inhibition in data set [3].

As for `Cc1cccc(C)c1NC(=O)[C@@H]1Cc2c([nH]c3ccccc23)C2(CN(c3ccc(C(F)(F)F)cc3)C2)N1`, the viability at 24 h, 10 µM in data set [1] was 117%. The molecule also returned an inhibition at 1 µM in data set [2] of 43.7%. The same molecule came in with an inhibition at 0.1 µM in data set [3] of 15.4%.

Regarding `Cc1cccc(C)c1NC(=O)[C@@H]1Cc2c([nH]c3ccccc23)C2(CN(c3ccc(C#N)cc3)C2)N1`, the viability at 24 h, 10 µM in data set [1] came to 105%. The molecule further registered an inhibition at 1 µM in data set [2] of 48.3%. In addition, the inhibition at 0.1 µM in data set [3] was determined as 37.3%.

As to `Cc1cccc(C)c1NC(=O)[C@H]1Cc2c3ccccc3[nH]c2[C@]2(C[C@@H](c3ccccc3)C2)N1`, the viability at 24 h, 10 µM in data set [1] turned out to be 116%. In data set [2], this molecule gave an inhibition at 1 µM of 23.8%.

`CN(C)c1ccccc1NC(=O)[C@@H]1Cc2c3ccccc3[nH]c2[C@]2(C[C@@H](c3ccccc3)C2)N1`: the viability at 24 h, 10 µM in data set [1] came out at 109%. In data set [2], this molecule showed an inhibition at 1 µM of 89.9%. In addition, in data set [3], the inhibition at 0.1 µM is 32.2%.

Take `O=C(Nc1ccccn1)[C@@H]1Cc2c3ccccc3[nH]c2[C@]2(C[C@@H](c3ccccc3)C2)N1`: the viability at 24 h, 10 µM in data set [1] turned out to be 127%. Also, in data set [2], the inhibition at 1 µM turned out to be 41.2%. Testing at 0.1 µM in data set [3] gave an inhibition of 16.1%.

With `CC(C)c1ccccc1NC(=O)[C@@H]1Cc2c3ccccc3[nH]c2[C@]2(C[C@H](c3ccccc3)C2)N1`, the viability at 24 h, 10 µM in data set [1] is 103%. The molecule also showed an inhibition at 1 µM in data set [2] of 37.5%. In data set [3], this molecule yielded an inhibition at 0.1 µM of 12.7%.

As to `Cc1cccc(C)c1NC(=O)[C@@H]1Cc2c([nH]c3ccccc23)C2(CN(c3ccc(F)cc3)C2)N1`, in data set [1], the viability at 24 h, 10 µM came out at 119%. The inhibition at 1 µM in data set [2] stood at 57.4%. Further, the inhibition at 0.1 µM in data set [3] was found to be 23.1%.

As to `Cc1cccc(C)c1NC(=O)[C@@H]1Cc2c([nH]c3ccccc23)C2(CCN(c3ccccc3)CC2)N1`, the viability at 24 h, 10 µM in data set [1] stood at 120%. The molecule also displayed an inhibition at 1 µM in data set [2] of 30.2%.

In the case of `CC(C)c1ccccc1NC(=O)[C@@H]1Cc2c3ccccc3[nH]c2[C@]2(C[C@@H](c3ccccc3)C2)N1`, the viability at 24 h, 10 µM in data set [1] is 116%. This molecule also came in with an inhibition at 1 µM in data set [2] of 62.5%. In data set [3], this molecule returned an inhibition at 0.1 µM of 26.5%.

Take `Cc1ccccc1NC(=O)[C@@H]1Cc2c3ccccc3[nH]c2[C@]2(C[C@@H](c3ccccc3)C2)N1`: in data set [1], the viability at 24 h, 10 µM was determined as 102%. In addition, in data set [2], the inhibition at 1 µM came out at 54.4%. This molecule also had an inhibition at 0.1 µM in data set [3] of 23%.

Take `Cc1ccccc1NC(=O)[C@@H]1Cc2c3ccccc3[nH]c2[C@]2(C[C@H](c3ccccc3)C2)N1`: the viability at 24 h, 10 µM in data set [1] came out at 112%. For the same molecule, at 1 µM the inhibition in data set [2] was 66.5%. The molecule further had an inhibition at 0.1 µM in data set [3] of 16.5%.

As for `CC(C)c1cccc(C(C)C)c1NC(=O)[C@@H]1Cc2c3ccccc3[nH]c2[C@]2(C[C@@H](c3ccccc3)C2)N1`, the viability at 24 h, 10 µM in data set [1] was determined as 115%. The same molecule returned an inhibition at 1 µM in data set [2] of 66.9%. Moreover, the inhibition at 0.1 µM in data set [3] worked out at 23.6%.

Regarding `Cc1cccnc1NC(=O)[C@@H]1Cc2c3ccccc3[nH]c2[C@]2(C[C@@H](c3ccccc3)C2)N1`, the viability at 24 h, 10 µM in data set [1] turned out to be 160%. The molecule further came in with an inhibition at 1 µM in data set [2] of 58.3%. In data set [3], this molecule returned an inhibition at 0.1 µM of 35.9%.

Take `O=C(Nc1ccccn1)[C@@H]1Cc2c3ccccc3[nH]c2[C@]2(C[C@H](c3ccccc3)C2)N1`: the viability at 24 h, 10 µM in data set [1] was 149%. For the same molecule, in data set [2], the inhibition at 1 µM is 44.2%. The same molecule registered an inhibition at 0.1 µM in data set [3] of 13.1%.

For the molecule `O=C(Nc1ccccc1F)[C@@H]1Cc2c3ccccc3[nH]c2[C@]2(C[C@H](c3ccccc3)C2)N1`, the viability at 24 h, 10 µM in data set [1] is 63.6%. The molecule also yielded an inhibition at 1 µM in data set [2] of 40.7%. In addition, the inhibition at 0.1 µM in data set [3] stood at 17.6%.

Regarding `Cc1cccc(C)c1NC(=O)[C@@H]1Cc2c3ccccc3[nH]c2[C@]2(C[C@H](c3ccccc3)C2)N1`, in data set [1], the viability at 24 h, 10 µM turned out to be 95.1%. The molecule also returned an inhibition at 1 µM in data set [2] of 32.3%. Moreover, the inhibition at 0.1 µM in data set [3] came out at 29.2%.

`Cc1cccc(C)c1NC(=O)[C@H]1Cc2c([nH]c3ccccc23)C2(CN(c3ccccc3)C2)N1`: in data set [1], the viability at 24 h, 10 µM stood at 119%. Moreover, the inhibition at 1 µM in data set [2] came out at 78.3%. The inhibition at 0.1 µM in data set [3] was 42.9%.

Consider `Cc1cccc(C)c1NC(=O)[C@@H]1Cc2c([nH]c3ccccc23)[C@@](C)(CCc2ccccc2)N1`, for which, in data set [1], the viability at 24 h, 10 µM stood at 106%. In data set [2], 1 µM produced 52.1% inhibition. The same molecule displayed an inhibition at 0.1 µM in data set [3] of 23.4%.
